Assay results reported in US7148376B2, “Polymorphic forms of nateglinide” (Teva Pharmaceutical Industries Ltd., priority 2002, dated 2006).
“Also recorded” adds a separate entry of the source. Values belong to the compound of their own block, whether it stands above or below them.

How the values were obtained:
[1] = Polymorphic stability on storage at room temperature (XRPD); assay type: physicochemical; settings: storage at room temperature and pressure for about a day
Protocol: The various crystalline forms are also analyzed by Thermal Gravimetric Analysis (TGA). […] In contrast to the above listed forms, TGA profiles of forms L, P, U, α, δ and σ show no significant weight loss. These polymorphic forms of nateglinide are free of bound solvents, i.e., less than about 2% LOD. Table III lists the solvents used for the preparation for nateglinide solvated forms, as well as LOD values based on TGA analysis.
Storage at room temperature and pressure may also cause a transition of one form to another.
(§1) • X-Ray diffraction was performed on X-Ray powder diffractometer, Scintag®, variable goniometer, Cu-tube, solid state detector. Sample holder: A round standard aluminum sample holder with round zero background quartz plate. • The sample was put on the sample holder and immediately analyzed as is. • Scanning parameters: Range: 2–40 deg 2θ, Continuos Scan, Rate: 3 deg./min. DSC: • DSC821^e Mettler Toledo®, Sample weight: 3–5 mg, Heating rate: 10° C./min, Number of holes in the crucible: 3 TGA: • Mettler TG50®, Sample weight: 7–15 mg, Heating rate: 10° C./min FTIR: • Perkin-Elmer®, Spectrum One FTIR spectrometer, Range: 4000–400 cm−1, no. of scans: 16, resolution: 4.0 cm−1, DRIFT technique.

[2] = Thermal stability: polymorphic form after drying or heating (XRPD); assay type: physicochemical; settings: for crystal form obtained upon drying: drying by heating under ambient or reduced pressure, generally about 40° C. to about 80° C.
Protocol: The various crystalline forms are related to each other in that drying of one form may result in a transformation to another form, namely nateglinide Forms A, B, D, E, F, G, H, I, J, K, L, M, N, Q, S, T, V, Z, α, β, δ, γ, ε, θ and Ω. The drying is carried out by heating a sample under ambient or reduced pressure. Generally, a preferred temperature is from about 40° C. to about 80° C., more preferably under reduced pressure. […] The term “stable” as used herein refers to a polymorphic change of less than about 5% by weight, more preferably less than about 2%, particularly for Form δ.
as §1
Sample of nateglinide form U (˜1 g) was introduced into a 6-gram vial and heated over 8.5 h in a 100° C. oil bath. The vial were extracted from the bath.
Sample of nateglinide form U (˜0.5 g) was heated to 120° C. for 1 h in an atmospheric pressure.
Sample of nateglinide form δ (˜0.5 g) was heated to 120° C. for 1 h in an atmospheric pressure.

[3] = Exposure of nateglinide Form H to solvent vapors; assay type: physicochemical; settings: vapors of water and acetone, room temperature
Protocol: Some of the crystalline forms are obtained by absorption of solvent vapors. Nateglinide is contacted with vapors of a particular solvent, resulting in absorption of the solvent. Absorption of ethanol results in Form D, methanol in Form O, and DCM in Form Y. Form H was stable in the presence of vapors of water and acetone.
Nateglinide (3.50 g) was added to a polypropylene can and weighed. The can was introduced into a bigger polypropylene container containing a solvent, and stored at room temperature. The can was removed from the container and weighed (Wfinal). The can content was divided into 2 portions. One portion was dried at a temperature of 55° C. and a pressure of 20–30 mmHg to constant weight (±0.01 g).

[4] = cited from earlier work

SMILES: CC(C)[C@H]1CC[C@H](C(=O)N[C@H](Cc2ccccc2)C(=O)O)CC1 [Form A, nateglinide]
transition of one form to another on storage ([1]; listed as A): partially converts to Form B
crystal form obtained upon drying ([2]; listed as A): convert to Form B

SMILES: CC(C)[C@H]1CC[C@H](C(=O)N[C@H](Cc2ccccc2)C(=O)O)CC1 [Form B, nateglinide]
thermal stability (conversion to another form upon heating) [2]: thermally stable

SMILES: CC(C)[C@H]1CC[C@H](C(=O)N[C@H](Cc2ccccc2)C(=O)O)CC1 [Form C, nateglinide]
crystal form obtained upon drying ([2]; listed as C): convert to Form B

SMILES: CC(C)[C@H]1CC[C@H](C(=O)N[C@H](Cc2ccccc2)C(=O)O)CC1 [Form D, nateglinide]
crystal form obtained upon drying ([2]; listed as D): convert to Form B

SMILES: CC(C)[C@H]1CC[C@H](C(=O)N[C@H](Cc2ccccc2)C(=O)O)CC1 [Form E, nateglinide]
crystal form obtained upon drying ([2]; listed as E): convert to Form B

SMILES: CC(C)[C@H]1CC[C@H](C(=O)N[C@H](Cc2ccccc2)C(=O)O)CC1 [Form G, nateglinide]
crystal form obtained upon drying ([2]; listed as G): convert to Form B

SMILES: CC(C)[C@H]1CC[C@H](C(=O)N[C@H](Cc2ccccc2)C(=O)O)CC1 [Form H, nateglinide]
thermal stability (conversion to another form upon heating) [2]: thermally stable
stability in the presence of solvent vapors [3]: stable

SMILES: CC(C)[C@H]1CC[C@H](C(=O)N[C@H](Cc2ccccc2)C(=O)O)CC1 [Form I, nateglinide]
transition of one form to another on storage ([1]; listed as I): converts to Form L

SMILES: CC(C)[C@H]1CC[C@H](C(=O)N[C@H](Cc2ccccc2)C(=O)O)CC1 [Form J, nateglinide]
crystal form obtained upon drying ([2]; listed as J): convert to Form B

SMILES: CC(C)[C@H]1CC[C@H](C(=O)N[C@H](Cc2ccccc2)C(=O)O)CC1 [Form K, nateglinide]
crystal form obtained upon drying ([2]; listed as K): convert to Form B

SMILES: CC(C)[C@H]1CC[C@H](C(=O)N[C@H](Cc2ccccc2)C(=O)O)CC1 [Form L, nateglinide]
thermal stability (conversion to another form upon heating) [2]: thermally stable

SMILES: CC(C)[C@H]1CC[C@H](C(=O)N[C@H](Cc2ccccc2)C(=O)O)CC1 [nateglinide, (−)-N-(trans-4-isopropylcyclohexanecarbonyl)-D-Phenylalanine]
solubility in acetonitrile ([4]; acetonitrile): sparingly soluble
solubility in chloroform ([4]; chloroform): freely soluble
solubility in ethanol ([4]; ethanol): freely soluble
solubility in ether ([4]; ether): soluble
solubility in methanol ([4]; methanol): freely soluble
solubility in octanol ([4]; octanol): sparingly soluble
solubility in water ([4]; water): practically insoluble

Continued, in another order:

thermal stability (conversion to another form upon heating) [2]: somewhat stable
SMILES: CC(C)[C@H]1CC[C@H](C(=O)N[C@H](Cc2ccccc2)C(=O)O)CC1 [Form O, nateglinide]

crystal form obtained upon drying ([2]; listed as Q): convert to Form B
SMILES: CC(C)[C@H]1CC[C@H](C(=O)N[C@H](Cc2ccccc2)C(=O)O)CC1 [Form Q, nateglinide]
transition of one form to another on storage ([1]; listed as Q): converts to Form Y (containing chloroform)

transition of one form to another on storage ([1]; listed as T): converts to Form E
SMILES: CC(C)[C@H]1CC[C@H](C(=O)N[C@H](Cc2ccccc2)C(=O)O)CC1 [Form T, nateglinide]
crystal form obtained upon drying ([2]; listed as T): convert to Form B; also recorded: mixture of Form B and G

thermal stability (conversion to another form upon heating) [2]: thermally stable
crystal form after heating to 120° C. for 1 h ([2]; 120° C., 1 h, atmospheric pressure, XRPD): Form U
SMILES: CC(C)[C@H]1CC[C@H](C(=O)N[C@H](Cc2ccccc2)C(=O)O)CC1 [Form U, nateglinide]
crystal form after heating at about 100° C. ([2]; 100° C. oil bath, 8.5 h, XRPD): does not undergo a transition; also recorded: Form U

thermal stability (conversion to another form upon heating) [2]: somewhat stable
SMILES: CC(C)[C@H]1CC[C@H](C(=O)N[C@H](Cc2ccccc2)C(=O)O)CC1 [Form Y, nateglinide]

crystal form obtained upon drying ([2]; listed as Z): convert to Form B
SMILES: CC(C)[C@H]1CC[C@H](C(=O)N[C@H](Cc2ccccc2)C(=O)O)CC1 [Form Z, nateglinide]

crystal form after drying at 50° C. in a vacuum oven overnight ([2]; 50° C., vacuum oven, overnight, XRD): mixture of Form omega and Form Z
crystal form obtained upon drying ([2]; listed as Ω): convert to Form B
SMILES: CC(C)[C@H]1CC[C@H](C(=O)N[C@H](Cc2ccccc2)C(=O)O)CC1 [Form Ω, nateglinide]

thermal stability (conversion to another form upon heating) [2]: somewhat stable
crystal form obtained upon drying ([2]; listed as α): convert to Form B
SMILES: CC(C)[C@H]1CC[C@H](C(=O)N[C@H](Cc2ccccc2)C(=O)O)CC1 [Form α, nateglinide]

crystal form obtained upon drying ([2]; listed as β): convert to Form B
SMILES: CC(C)[C@H]1CC[C@H](C(=O)N[C@H](Cc2ccccc2)C(=O)O)CC1 [Form β, nateglinide]

thermal stability (conversion to another form upon heating) [2]: somewhat stable
crystal form after heating at 120° C. ([2]; 120° C., 1 atmosphere, 1 h, XRPD): Form B
crystal form obtained upon drying ([2]; listed as δ): convert to Form B
polymorphic form after drying in a fluidized bed drier ([2]; fluidized bed drier, 4 hours at 60° C.): delta
polymorph after drying in a stirred reactor ([2]; stirred reactor 7–10 rpm, 60 mmHg vacuum, 60° C., 6 hours): remained delta form
SMILES: CC(C)[C@H]1CC[C@H](C(=O)N[C@H](Cc2ccccc2)C(=O)O)CC1 [Form δ, nateglinide]

crystal form obtained upon drying ([2]; listed as θ): convert to Form B
SMILES: CC(C)[C@H]1CC[C@H](C(=O)N[C@H](Cc2ccccc2)C(=O)O)CC1 [Form θ, nateglinide]

thermal stability (conversion to another form upon heating) [2]: thermally stable
SMILES: CC(C)[C@H]1CC[C@H](C(=O)N[C@H](Cc2ccccc2)C(=O)O)CC1 [Form σ, nateglinide]

crystal form obtained upon drying [2]: Form B
SMILES: CC(C)[C@H]1CC[C@H](C(=O)N[C@H](Cc2ccccc2)C(=O)O)CC1 [acetonitrile solvate of Form Epsilon, nateglinide]

crystal form obtained upon drying [2]: Forms H or P
SMILES: CC(C)[C@H]1CC[C@H](C(=O)N[C@H](Cc2ccccc2)C(=O)O)CC1 [nitromethane solvates of Form Epsilon, nateglinide]
